# Data as given in paper PMC12801355, “Peptide Amphiphiles Hitchhike on Endogenous Biomolecules for Enhanced Cancer Imaging and Therapy” (Advanced Materials (Deerfield Beach, Fla.), 2025).
# Where a SMILES comes first, the peptide text is derived from it. The star is where a group is joined. Palmitoyl = CCCCCCCCCCCCCCCC(=O)*
# Key:
# HeLa tumors = assay: Tumor accumulation in wild type or LDL‐R‐/‐ tumors; assay type: in vivo, mouse; settings: 50 nmol IV, 2 days
# Method: For tumor accumulation studies in subcutaneous (HCT‐116, A375, TRAMP‐C2, MC38, LLC1, RG2, PDX cell lines, wild type or SR‐B1 ‐/‐ TRAMP‐C2, and wild type or LDL‐R ‐/‐ HeLa), intradermal (A375), or fat pad (4T1 and MCF‐7) tumors, cells were implanted as described above. When the tumors reached a size around ≈0.3–1 cm, mice were injected intravenously with 100 µL of ICG conjugated PAs (in PBS, 0.5 mM) or free ICG (in PBS, 0.5 mM). After probe injections, mice were imaged using the IVIS Spectrum (PerkinElmer) with excitation and emission wavelengths of 745 and 820 nm, respectively, at the specified time points. Living Image (PerkinElmer) software was used for all analyses. For MMTV mice experiments, mice were injected intravenously weekly with SA‐E (100 µL PBS, 0.5 mM) between 71 and 85 days of age and imaged 2 days later in the IVIS. […] SA‐E was injected intravenously (100 µL PBS, 0.5 mM), 2 days later the intestinal tissue was harvested, washed, and analyzed in the IVIS for ICG.
# [1] = Clearance study (urine and stool); assay type: in vivo, mouse; settings: 50 nmol IV
# Method: Six Balb/c mice were intravenously injected with 100 µL of either ICG‐conjugated SA‐E or PBS, with three mice in each group. Urine and stool samples were collected from each mouse at different time points up to 7 days. […] Urine from healthy Balb/c mice was collected and pooled to generate a calibration curve. Fluorescence of stool samples was detected using an IVIS (PerkinElmer).
# 4T1 tumor = assay: Biodistribution in tumor‐bearing mice; assay type: in vivo, mouse; settings: 4T1, 2 days after 50 nmol IV, tissue homogenates, plate reader, mean ± SEM
# Method: For biodistribution studies in 4T1 and MC38 tumor models in wild type, ApoA1 ‐/‐, or LDL‐R ‐/‐ mice, 100 µL of ICG conjugated PAs or free ICG (0.5 mM) were intravenously injected. 2 days after injection, the mice were euthanized, and tumors and organs were excised and analyzed in the IVIS (PerkinElmer) for ICG.
# To determine the percentage of the injected dose of SA‐E in tissues, 4T1 tumor, spleen, kidney, lung, and colon tissues were harvested from 5 mice 2 days after ICG conjugated SA‐E (IV, 100 µL, 0.5 mM). Organ weights were measured for normalization. Tissues were homogenized in gentleMACS M Tube containing 1 mL of PBS and equipped with a 600 µm mesh strainer using a gentleMACS dissociator as described above. The resulting tissue homogenates were transferred into a 96‐well plate for fluorescence measurement using a microplate reader (TECAN Spark 20 M). Additionally, organ tissues from healthy mice without probe injection were harvested and homogenized to prepare calibration curves. ICG conjugated SA‐E was spiked into tissue samples at different concentrations, and fluorescence intensities were measured using a microplate reader (TECAN Spark 20 M). For biodistribution studies with 10 mol% ICG containing micelles, ICG conjugated PAs were mixed with maleimide blocked PAs to achieve a final concentration of 0.25 mM ICG conjugated PAs and 2.5 mM total peptides. […]
# [2] = test system: TRAMP‐C2 mouse prostate cancer cells; assay: Uptake of SA‐E by wild type or SR‐B1 knockout cells; assay type: cell-based; settings: Cy5 SA‐E 20 µM, 10% FBS DMEM
# Method: For SR‐B1 studies, an equal number of wells in a black walled, glass bottom 96‐well plate were seeded with either wild type or SR‐B1‐/‐ TRAMP‐C2 cells and grown to near confluency, as above. The Cy5 conjugated SA‐E was diluted in 10% FBS containing DMEM and incubated at room temperature for 30 min. All media from the wells was aspirated. Four wells of each cell type received 100 µL aliquots with SA‐E (20 µM). The plate was incubated for 30 min, as above. Following the methods above, wells were washed with PBS, media was added, and the plate was returned to the incubator for 1 h. Finally, Hoechst staining and fluorescence imaging were performed using a Leica Thunder DMi8 fluorescent microscope, as described above.
# [3] = test system: 4T1 mouse breast cancer cells; assay: Cellular uptake of Cy5 labeled PAs; assay type: cell-based; settings: 10 µM Cy5‐PA, 2 h incubation at 37 °C
# Method: To compare the uptake of SA‐E and SA‐K, 1 × 10^5 4T1 cells were grown to near confluency (1–2 days) in 96 well plates with black walls and flat glass bottom. 100% Cy5 conjugated PAs (20 or 10 µM) or 10% Cy5 conjugated PA micelles (10 µM Cy5‐PAs mixed with 90 µM maleimide blocked labeled PAs) were preincubated in 10% FBS containing RPMI for 30 min at 37 °C, wells were aspirated, and 100 µL of media containing PAs were added. The plate was incubated for 30 min for the experiments with 100% Cy5 conjugated PAs. Media were aspirated, wells were washed 3x with 150 µL sterile PBS, and then 100 µL RPMI containing 10% FBS was added to each well. The plate was incubated for 1 h at 37 °C. For 10% and 100% Cy5 micelle uptake comparison, plate was incubated for 2 h at 37 °C with PAs. Then, media containing PAs were aspirated and washed with PBS, as above. Cell nuclei were stained with Hoechst (1:5000 dilution in PBS) for 5 min and then removed. 100 µL of phenol red free RPMI containing 10% FBS was added to each well. […] The microscope incubator was preheated for 30 min to reach 35 °C prior to imaging.
# To study the uptake of SA‐E or SA‐K micelles (10% or 100% Cy5 micelles) or No‐SA over time, 4T1 cells were grown to near confluency in a 96 well plate as described above. Cy5 conjugated 100% Cy5 conjugated PAs (20 µM), 10% Cy5 conjugated PAs (10 µM Cy5), or No‐SA (20 µM) or were preincubated in 10% FBS containing RPMI for 30 min at 37 °C. Cell nuclei were stained with Hoechst stain as above. Cell membranes were stained (CellBrite 488, 1:1000 in 10% FBS containing RPMI) for 30 min at 37 °C. Wells were aspirated, and 100 µL of PAs were added to the wells for ≈1 min. Wells were washed with sterile PBS (3x, 150 µL), and Confocal images were taken at different time points (up to 2 h) after PA or No‐SA addition as described above using a 60x objective.
# [4] = test system: LPs (HDL, LDL, VLDL) and albumin in pooled human plasma
# Method: FPLC experiments were performed using SA‐E, SA‐K, or No‐SA conjugated with ICG or SA‐E conjugated with MMAE at a final concentration of 250 µM in filtered PBS (10 mM, pH 7.4) with or without human plasma or purified LPs or albumin. For analysis of SA‐E interactions with purified LPs, VLDL, LDL, HDL, and human serum albumin were diluted in filtered PBS to approximate concentrations found in 10% human plasma: 0.0025, 0.13, 0.05, and 5mg mL^−1, respectively. SA‐E was incubated with the purified LP/protein mixture for 30 min at 37 °C before injection. For analysis of plasma interactions, PAs or No‐SA were incubated in PBS containing 10% pooled human plasma for 30 min at 37 °C before injection. The total volume injected for all samples was 400 µL. All data was collected on an ÄKTA pure chromatography system using the following running conditions: size exclusion chromatography on a Superose 6 Increase 10/300 GL column with a column volume (CV) of 30 mL, pre‐column pressure limit of 5 MPa, delta‐column pressure limit of 2.6 MPa, flow rate of 0.75 mL min^−1, in 100% PBS. The sample running method included first an equilibration step before injection of the sample with 100% PBS for 0.5 CV, followed by sample application via 1 mL capillary loop in 100% PBS, and finished with a linear elution consisting of 2 CV collected in 1 mL fractions. The UV‐Vis detector wavelengths were 250, 280, and 700 nm to detect MMAE, all proteins/LPs, and ICG, respectively.
structure (smiles),measurement,setting,value
CCCCCCCCCCCCCCCC(=O)NCC(=O)NCC(=O)NCC(=O)N[C@@H](Cc1c[nH]cn1)C(=O)N[C@@H](C)C(=O)N[C@@H](C)C(=O)N[C@@H](CC(N)=O)C(=O)NCC(=O)N[C@@H](CCC(=O)O)C(=O)N[C@@H](CCC(=O)O)C(=O)N[C@@H](CS)C(=O)N[C@@H](CCC(=O)O)C(=O)O [SA‐E] (Palmitoyl-GGGHAANGEECE-OH),"tumor accumulation, LDL‐R knockout versus wild type tumors",HeLa tumors,not needed for tumor accumulation
same,fluorescence in urine samples,"[1]; any time point up to 7 days, plate reader",No fluorescence signal was detected
same,decline of ICG signal in stool,"[1]; Balb/c mice, IVIS",mostly diminished at 2 days
same,time of peak ICG signal in stool,"[1]; Balb/c mice, IVIS, n = 3",6 h
same,concentration in the tumor,4T1 tumor; 5 mice,1.9% ± 0.4 %ID / g tissue
same,concentration in liver,4T1 tumor,0.8% ± 0.1 %ID / g tissue
same,uptake in SR‐B1‐/‐ cells compared to wild type,[2],did not observe any significant change
same,uptake of 10% Cy5 micelles relative to 100% Cy5 micelles,[3],no significant difference
same,"amount bound to albumin, lower than bound to HDL",[4],approximately two‐fold
